# Patent publication US8822520B2, “Substituted bicyclic HCV inhibitors” (Presidio Pharmaceuticals, Inc., priority 2010, dated 2014)
# Test system: HCV genotype 1b replicon in Huh 7 cells (HCV 1b_Huh-Luc/Neo-ET cell line)
# Assay: HCV replicon assay (luciferase readout)
# Type: cell-based
# Conditions: Hepatitis C virus, Huh-7; Table 1; EC50 range class; replicon luciferase, 72 h incubation, average EC50; read-out: Inhibition of HCV genotype 1b
# Protocol: Biological activity of the compounds of the invention was determined using an HCV replicon assay. The HCV 1b_Huh-Luc/Neo-ET cell line persistently expressing a bicistronic genotype 1b replicon in Huh 7 cells was obtained from ReBLikon GMBH. This cell line was used to test compound inhibition using luciferase enzyme activity readout as a measurement of compound inhibition of replicon levels.
# On Day 1 (the day after plating cells), each compound is added in triplicate to the cells. Plates are incubated for 72 h prior to determining luciferase levels. Enzyme activity was measured using a Bright-Glo Kit (cat. number E2620) manufactured by Promega Corporation. The following equation was used to generate a percent control value for each compound. % Control=(Compound Luciferase Level/Control Luciferase Level)*100
# The EC50 value was determined using GraphPad Prism and the following equation: Y=Bottom asymptote+(Top asymptote−Bottom asymptote)/(1+10^((Log EC50−X)*HillSlope))
# EC50 values of compounds are determined several times in the replicon assay to generate average EC50 values.
row,SMILES,EC50 [nM]
1,COCCOc1cc(-c2cnc([C@@H]3CCCN3C(=O)[C@@H](NC(=O)OC)C(C)C)[nH]2)ccc1-c1ccc(-c2cnc([C@@H]3CCCN3C(=O)[C@@H](NC(=O)OC)C(C)C)[nH]2)cc1OCCOC [Compound 1],< 1
2,COCCOc1c(-c2ccc(-c3cnc([C@@H]4CCCN4C(=O)[C@@H](NC(=O)OC)C(C)C)[nH]3)cc2)ccc(-c2cnc([C@@H]3CCCN3C(=O)[C@@H](NC(=O)OC)C(C)C)[nH]2)c1OCCOC [Compound 2],< 1
3,CC[C@H](C)C(NC(=O)OC)C(=O)N1CCC[C@H]1c1ncc(-c2ccc(-c3ccc(-c4cnc([C@@H]5CCCN5C(=O)[C@@H](NC(=O)OC)[C@@H](C)CC)[nH]4)c(OCCOC)c3OCCOC)cc2)[nH]1 (stereo partly shown) [Compound 3],< 1
4,COCCOc1c(-c2ccc(-c3cnc([C@@H]4CCCN4C(=O)[C@@H](NC(=O)OC)C4CCCC4)[nH]3)cc2)ccc(-c2cnc([C@@H]3CCCN3C(=O)[C@@H](NC(=O)OC)C3CCCC3)[nH]2)c1OCCOC [Compound 4],< 1
5,COCCOc1cc(-c2cnc([C@@H]3CCCN3C(=O)[C@H](C)NC(=O)OC)[nH]2)ccc1-c1ccc(-c2cnc([C@@H]3CCCN3C(=O)[C@H](C)NC(=O)OC)[nH]2)cc1OCCOC [Compound 6],10 to 999
6,CC[C@H](C)C(NC(=O)OC)C(=O)N1CCC[C@H]1c1ncc(-c2ccc(-c3ccc(-c4cnc([C@@H]5CCCN5C(=O)C(NC(=O)OC)[C@@H](C)CC)[nH]4)cc3OCCOC)c(OCCOC)c2)[nH]1 (stereo partly shown) [Compound 7],< 1
7,COCCOc1cc(-c2cnc([C@@H]3CCCN3C(=O)[C@@H](NC(=O)OC)C3CCCC3)[nH]2)ccc1-c1ccc(-c2cnc([C@@H]3CCCN3C(=O)[C@@H](NC(=O)OC)C3CCCC3)[nH]2)cc1OCCOC [Compound 8],< 1
8,COCCOc1cc(-c2cnc([C@@H]3CCCN3C(=O)[C@@H](NC(=O)OC)C3CCCCC3)[nH]2)ccc1-c1ccc(-c2cnc([C@@H]3CCCN3C(=O)[C@@H](NC(=O)OC)C3CCCCC3)[nH]2)cc1OCCOC [Compound 9],< 1
9,COCCOc1c(-c2ccc(-c3cnc([C@@H]4CCCN4C(=O)[C@H](C)NC(=O)OC)[nH]3)cc2)ccc(-c2cnc([C@@H]3CCCN3C(=O)[C@H](C)NC(=O)OC)[nH]2)c1OCCOC [Compound 10],< 1
10,COCCOc1c(-c2ccc(-c3cnc([C@@H]4CCCN4C(=O)C(NC(=O)OC)[C@@H](C)OC)[nH]3)cc2)ccc(-c2cnc([C@@H]3CCCN3C(=O)C(NC(=O)OC)[C@@H](C)OC)[nH]2)c1OCCOC (stereo partly shown) [Compound 12],1 to 9.9
11,COCCOc1c(-c2ccc(-c3cnc([C@@H]4CCCN4C(=O)[C@@H](NC(=O)OC)C(C)(C)C)[nH]3)cc2)ccc(-c2cnc([C@@H]3CCCN3C(=O)[C@@H](NC(=O)OC)C(C)(C)C)[nH]2)c1OCCOC [Compound 13],1 to 9.9
12,COCCOc1c(-c2ccc(-c3cnc([C@@H]4CCCN4C(=O)[C@@H](NC(=O)OC)C4CCOCC4)[nH]3)cc2)ccc(-c2cnc([C@@H]3CCCN3C(=O)[C@@H](NC(=O)OC)C3CCOCC3)[nH]2)c1OCCOC [Compound 14],1 to 9.9
13,COCCOc1c(-c2ccc(-c3cnc([C@@H]4CCCN4C(=O)[C@@H](c4ccccc4)N(C)C)[nH]3)cc2)ccc(-c2cnc([C@@H]3CCCN3C(=O)[C@@H](c3ccccc3)N(C)C)[nH]2)c1OCCOC [Compound 15],< 1
14,COCCOc1c(-c2ccc(-c3cnc([C@@H]4CCCN4C(=O)[C@@H](c4ccccc4)N4CCCC4)[nH]3)cc2)ccc(-c2cnc([C@@H]3CCCN3C(=O)[C@@H](c3ccccc3)N3CCCC3)[nH]2)c1OCCOC [Compound 16],1 to 9.9
15,COCCOc1c(-c2ccc(-c3cnc([C@@H]4CCCN4C(=O)[C@H](NS(C)(=O)=O)c4ccccc4)[nH]3)cc2)ccc(-c2cnc([C@@H]3CCCN3C(=O)[C@H](NS(C)(=O)=O)c3ccccc3)[nH]2)c1OCCOC [Compound 17],< 1
16,COCCOc1c(-c2ccc(-c3cnc([C@@H]4CCCN4C(=O)[C@H](NC(=O)OC)C(C)C)[nH]3)cc2)ccc(-c2cnc([C@@H]3CCCN3C(=O)[C@H](C)NC(=O)OC)[nH]2)c1OCCOC [Compound 18],1 to 9.9
17,CC[C@H](C)[C@H](NC(=O)OC)C(=O)N1CCC[C@H]1c1ncc(-c2ccc(-c3ccc(-c4cnc([C@@H]5CCCN5C(=O)[C@@H](NC(=O)OC)C(C)C)[nH]4)cc3)c(OCCOC)c2OCCOC)[nH]1 [Compound 19],< 1
18,COCCOc1c(-c2ccc(-c3cnc([C@@H]4CCCN4C(=O)[C@H](NC(=O)OC)c4ccccc4)[nH]3)cc2)ccc(-c2cnc([C@@H]3CCCN3C(=O)[C@H](NC(=O)OC)c3ccccc3)[nH]2)c1OCCOC [Compound 20],< 1
19,COCCOc1c(-c2ccc(-c3cnc([C@@H]4CCCN4C(=O)[C@H](NC(=O)OC)c4ccsc4)[nH]3)cc2)ccc(-c2cnc([C@@H]3CCCN3C(=O)[C@H](NC(=O)OC)c3ccsc3)[nH]2)c1OCCOC [Compound 21],< 1

row,SMILES,EC50 [nM]
1,COCCOc1c(-c2ccc(-c3cnc([C@@H]4CCCN4C(=O)[C@H](NC(=O)OC)c4cccs4)[nH]3)cc2)ccc(-c2cnc([C@@H]3CCCN3C(=O)[C@H](NC(=O)OC)c3cccs3)[nH]2)c1OCCOC [Compound 22],< 1
2,COCCOc1c(-c2ccc(-c3cnc([C@@H]4CCCN4C(=O)[C@H](NC(C)=O)c4ccccc4)[nH]3)cc2)ccc(-c2cnc([C@@H]3CCCN3C(=O)[C@H](NC(C)=O)c3ccccc3)[nH]2)c1OCCOC [Compound 23],< 1
3,CNC(=O)N[C@@H](C(=O)N1CCC[C@H]1c1ncc(-c2ccc(-c3ccc(-c4cnc([C@@H]5CCCN5C(=O)[C@H](NC(=O)NC)c5ccccc5)[nH]4)c(OCCOC)c3OCCOC)cc2)[nH]1)c1ccccc1 [Compound 24],< 1
4,COCCOc1cc(-c2cnc([C@@H]3CCCN3C(=O)C(NC(=O)OC)[C@@H](C)OC)[nH]2)ccc1-c1ccc(-c2cnc([C@@H]3CCCN3C(=O)C(NC(=O)OC)[C@@H](C)OC)[nH]2)cc1OCCOC (stereo partly shown) [Compound 25],1 to 9.9
5,COCCOc1cc(-c2cnc([C@@H]3CCCN3C(=O)[C@H](NC(=O)OC)c3ccccc3)[nH]2)ccc1-c1ccc(-c2cnc([C@@H]3CCCN3C(=O)[C@H](NC(=O)OC)c3ccccc3)[nH]2)cc1OCCOC [Compound 26],< 1
6,COCCOc1c(-c2ccc(-c3cnc([C@@H]4CCCN4C(=O)[C@@H](NC(=O)OC)C(C)C)[nH]3)cc2)ccc(-c2cnc([C@@H]3CCCN3C(=O)[C@H](COC)NC(=O)OC)[nH]2)c1OCCOC [Compound 27],< 1
7,COCCOc1c(-c2ccc(-c3cnc([C@@H]4CCCN4C(=O)[C@@H](NC(=O)OC)C(C)C)[nH]3)cc2)ccc(-c2cnc([C@@H]3CCCN3C(=O)[C@@H](NC(=O)OC)[C@@H](C)OC)[nH]2)c1OCCOC [Compound 28],< 1
8,COCCOc1c(-c2ccc(-c3cnc([C@@H]4CCCN4C(=O)[C@@H](NC(=O)OC)C(C)C)[nH]3)cc2)ccc(-c2cnc([C@@H]3CCCN3C(=O)[C@@H](NC(=O)OC)C3CCCC3)[nH]2)c1OCCOC [Compound 29],< 1
9,COCCOc1c(-c2ccc(-c3cnc([C@@H]4CCCN4C(=O)[C@@H](NC(=O)OC)C(C)C)[nH]3)cc2)ccc(-c2cnc([C@@H]3CCCN3C(=O)[C@H](NC(=O)OC)c3ccccc3)[nH]2)c1OCCOC [Compound 30],< 1
10,COCCOc1c(-c2ccc(-c3cnc([C@@H]4CCCN4C(=O)[C@@H](NC(=O)OC)C(C)C)[nH]3)cc2)ccc(-c2cnc([C@@H]3CCCN3C(=O)[C@H](NC(=O)OC)c3ccsc3)[nH]2)c1OCCOC [Compound 31],< 1
11,COCCOc1c(-c2ccc(-c3cnc([C@@H]4CCCN4C(=O)[C@@H](NC(=O)OC)C(C)C)[nH]3)cc2)ccc(-c2cnc([C@@H]3CCCN3C(=O)[C@H](NC(=O)OC)c3cccs3)[nH]2)c1OCCOC [Compound 32],< 1
12,COCCOc1c(-c2ccc(-c3cnc([C@@H]4CCCN4C(=O)[C@@H](NC(=O)OC)C(C)C)[nH]3)cc2)ccc(-c2cnc([C@@H]3CCCN3C(=O)[C@@H](c3ccccc3)N(C)C)[nH]2)c1OCCOC [Compound 33],< 1
13,COCCOc1cc(-c2cnc([C@@H]3CCCN3C(=O)[C@@H](NC(=O)OC)C(C)C)[nH]2)ccc1-c1ccc(-c2cnc([C@@H]3CCCN3C(=O)[C@@H](NC(=O)OC)[C@@H](C)OC)[nH]2)cc1OCCOC [Compound 34],1 to 9.9
14,CC[C@H](C)[C@H](NC(=O)OC)C(=O)N1CCC[C@H]1c1ncc(-c2ccc(-c3ccc(-c4cnc([C@@H]5CCCN5C(=O)[C@@H](NC(=O)OC)C(C)C)[nH]4)cc3OCCOC)c(OCCOC)c2)[nH]1 [Compound 35],< 1
15,COCCOc1cc(-c2cnc([C@@H]3CCCN3C(=O)[C@@H](NC(=O)OC)C(C)C)[nH]2)ccc1-c1ccc(-c2cnc([C@@H]3CCCN3C(=O)[C@@H](NC(=O)OC)C3CCCC3)[nH]2)cc1OCCOC [Compound 36],< 1
16,COCCOc1cc(-c2cnc([C@@H]3CCCN3C(=O)[C@@H](NC(=O)OC)C(C)C)[nH]2)ccc1-c1ccc(-c2cnc([C@@H]3CCCN3C(=O)[C@H](NC(=O)OC)c3ccccc3)[nH]2)cc1OCCOC [Compound 37],< 1
17,COCCOc1cc(-c2cnc([C@@H]3CCCN3C(=O)[C@@H](NC(=O)OC)C(C)C)[nH]2)ccc1-c1ccc(-c2cnc([C@@H]3CCCN3C(=O)[C@@H](c3ccccc3)N3CCCC3)[nH]2)cc1OCCOC [Compound 38],1 to 9.9
18,COCCOc1c(-c2ccc(-c3cnc([C@H](C)NC(=O)[C@@H](NC(=O)OC)C(C)C)[nH]3)cc2)ccc(-c2cnc([C@@H]3CCCN3C(=O)[C@@H](NC(=O)OC)C(C)C)[nH]2)c1OCCOC [Compound 39],1 to 9.9
